Patent US20250230138A1, “COMPOUNDS HAVING A T-STRUCTURE FORMED BY AT LEAST FOUR CYCLES FOR USE IN THE TREATMENT OF CANCER AND OTHER INDICATIONS” (TheRas, Inc., priority 2022, published 2025)
Read-outs that look alike come from different tables or passages of the source.

Tests used:
[1] = biological target: Cys242 in human PIK3CA (157-299) (Homo sapiens (Human), UniProt P42336); test: Covalent modification assay using MALDI-TOF MS; format: biochemical; settings: 4 h reaction time point
Outline: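 Covalent adduct formation was read by linear-mode MALDI-TOF with sinapinic acid matrix, reported as modified-protein peak height divided by total protein peak heights. Reactions held PIK3CA (157-299) at 1 or 3.33 μM in HEPES/NaCl/MgCl2 buffer, pH 7.3, sampled after 15 min to 4 h at room temperature.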

pAKT in BT474 cells = test: Cell-based pAKT HTRF assay in BT474 cells; settings: BT474 cells, 4 hr incubation, read-out: pAKT inhibition IC50 in BT474 cells
Outline: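 Compound titration: 3 μM downward in 3-fold steps, nine points, 4 hr on cells. Detection: lysis, then d2 plus Eu Cryptate antibody mix, room-temperature incubation of 4–24 h, and time-resolved fluorescence read at 615 nm.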

[2] = 3.33 μM protein target, 1:7.5 protein to compound ratio (compounds 1-852)
[3] = 1 μM protein target, 1:5 protein to compound ratio (compounds 853-1279)
[4] = Homo sapiens, BT-474, Compounds 10-999

Cys242 in human PIK3CA (157-299), sequence (P42336 157-299): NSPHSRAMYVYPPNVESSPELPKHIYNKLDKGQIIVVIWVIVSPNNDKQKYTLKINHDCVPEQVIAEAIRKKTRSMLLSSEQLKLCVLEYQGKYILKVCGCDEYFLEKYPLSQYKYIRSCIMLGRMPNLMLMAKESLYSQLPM

Compound	IC50 (pAKT in BT474 cells; Compounds 10-999) [nM]	IC50 (pAKT in BT474 cells; Compounds 1000-1279) [nM]	IC50 (pAKT in BT474 cells; [4]) [nM]	% of modification [1, 2]	% of modification [1, 3]
C=C(F)C(=O)N1Cc2cc(-c3nc(-c4ccc5c(c4)CCN(C)C5)c4ccsc4c3-c3c(F)cc(F)cc3OC(C)C)nn2CC1C (single isomer, unassigned) [Compound 500]	> 3000			D (percent of modification <25%)	
C=CC(=O)N1Cc2cc(-c3nc(-c4ccc5ncn(C)c5c4)c4ccsc4c3-c3c(F)cc(F)cc3O[C@H](C)CO)nn2C[C@H]1C [Compound 611]	100 to 1000			D (percent of modification <25%)	
C=CC(=O)N1CCn2nc(-c3nc(-c4cnn(C)c4)c4ccsc4c3-c3ccc(F)cc3OC(C)C)cc2C1C (stereo not drawn) [Compound 394]	< 100			A (percent of modification of PIK3CA protein ≥75%)	
C=CC(=O)N1Cc2cc(-c3nc(-c4ccc5c(c4)CCS5(=O)=O)c4ccsc4c3-c3c(F)cc(F)cc3OCCOC)nn2C[C@H]1C [Compound 794]	> 3000			A (percent of modification of PIK3CA protein ≥75%)	
C=CC(=O)N1CCn2nc(-c3nc(-c4ccc(=O)n(C)c4)ncc3-c3ccc(F)cc3OC(C)C)cc2C1 [Compound 337, 5-[5-(4-fluoro-2-isopropoxy-phenyl)-4-(5-prop-2-enoyl-6,7-dihydro-4H-pyrazolo [1,5-a]pyrazin-2-yl)pyrimidin-2-yl]-1-methyl-pyridin-2-one]			> 3000	B (50%<percent of modification <75%)	
C=CC(=O)N1CCn2nc(-c3nc(-c4ccc5c(c4)C(=O)N(C)C5)c4ccsc4c3-c3c(F)cc(F)cc3OCCO)cc2C1C (stereo not drawn) [Compound 867]	< 100				A (percent of modification of PIK3CA protein ≥75%)
C=CC(=O)N1CCn2nc(-c3nc(-c4ccc(OCC5CN(C)C5)cc4)c4ccsc4c3-c3c(F)cc(F)cc3OCCOC)cc2C1C (stereo not drawn) [Compound 1078]		< 100			A (percent of modification of PIK3CA protein ≥75%)
C=CC(=O)N1CCn2nc(-c3nc(-c4ccc5c(c4)CNC5=O)c4ccsc4c3-c3c(F)cc(F)cc3OC[C@@H](C)O)cc2[C@H]1C [Compound 762]	< 100			A (percent of modification of PIK3CA protein ≥75%)	
C=CC(=O)N1CC(n2cc(-c3nc(C4CCN(S(C)(=O)=O)CC4)c4ccsc4c3-c3ccc(F)cc3OC)cn2)C1 [Compound 296]	1000 to 3000			B (50%<percent of modification <75%)	
CC#CC(=O)N1CCn2nc(-c3nc(-c4ccc5c(c4)CCNC5=O)c4ccsc4c3-c3ccc(F)cc3OC(C)C)cc2C1 [Compound 268]	100 to 1000			A (percent of modification of PIK3CA protein ≥75%)	
C=CC(=O)N1CCc2nc(-c3nc(-c4ccn(C)c(=O)c4)c4ccsc4c3-c3c(F)cc(F)cc3OC(C)C)sc2C1 [Compound 352]	< 100			A (percent of modification of PIK3CA protein ≥75%)	
C=CC(=O)N1CCn2nc(-c3nc(-c4ccc5c(c4)c(C)nn5C)c4ccsc4c3-c3c(F)cc(F)cc3OCCO)cc2C1C (stereo not drawn) [Compound 1101]		< 100			A (percent of modification of PIK3CA protein ≥75%)
C=CC(=O)N1CCc2nc(-c3nc(-c4ccc(C5(N)COC5)cc4)c4ccsc4c3-c3c(F)cc(F)cc3OCCOC)sc2C1 [Compound 426]	< 100			A (percent of modification of PIK3CA protein ≥75%)	
C=CC(=O)N1CCc2nc(-c3nc(-c4ccc(C(C)(C)O)nc4)c4ccsc4c3-c3c(F)cc(F)cc3OCCOC)sc2C1 [Compound 445]	100 to 1000			A (percent of modification of PIK3CA protein ≥75%)	

Continued, in another order:

IC50 (pAKT in BT474 cells; Compounds 10-999) [nM]	IC50 (pAKT in BT474 cells; Compounds 1000-1279) [nM]	IC50 (pAKT in BT474 cells; [4]) [nM]	Compound	% of modification [1, 2]	% of modification [1, 3]
< 100			C=CC(=O)N1CCn2nc(-c3nc(-c4cn(C)cn4)c4ccsc4c3-c3c(F)cc(F)cc3OCCO)cc2[C@@H]1C [Compound 781]	A (percent of modification of PIK3CA protein ≥75%)	
	< 100		C=CC(=O)N1CCn2nc(-c3nc(-c4ccc5c(c4)C(=O)NC5)c4ccsc4c3-c3c(F)cc(F)cc3OCC(C)(C)O)cc2[C@H]1C [Compound 1130]		A (percent of modification of PIK3CA protein ≥75%)
	> 1000		C=CC(=O)N1CCc2ccc(-c3nc(-c4ccc5c(c4)CN(CCO)CC5(F)F)c4ccsc4c3-c3c(F)cc(F)cc3OCCOC)cc2C1 [Compound 1273]		D (percent of modification <25%)
		< 100	C=CC(=O)N1CCn2nc(-c3nc(-c4cnn(C)c4)c4ccsc4c3-c3ccc(F)cc3OC)cc2C1 [Compound 206, 1-[2-[7-(4-fluoro-2-methoxy-phenyl)-4-(1-methylpyrazol-4-yl)thieno[3,2-c]pyridin-6-yl]-6,7-dihydro-4H-pyrazolo[1,5-a]pyrazin-5-yl]prop-2-en-1-one]	A (percent of modification of PIK3CA protein ≥75%)	
100 to 1000			C=CC(=O)N1CC(n2cc(-c3nc(-c4cnn(CC5CC5(F)F)c4)c4ccsc4c3-c3ccc(F)cc3OCCOC)cn2)C1 (stereo not drawn) [Compound 237]	A (percent of modification of PIK3CA protein ≥75%)	
< 100			C=CC(=O)N1CCc2ncc(-c3nc(-c4cn(C)cn4)c4ccsc4c3-c3c(F)cc(F)cc3OC(C)C)cc2C1 [Compound 421]	A (percent of modification of PIK3CA protein ≥75%)	
< 100			C=CC(=O)N1CC(n2cc(-c3nc(-c4cnn(CCO)c4)c4ccsc4c3-c3ccc(F)cc3OCCOC)cn2)C1 [Compound 233]	A (percent of modification of PIK3CA protein ≥75%)	
< 100			C=CC(=O)N1CC(n2cc(-c3nc(-c4cnn(C)c4)c4ccsc4c3-c3ccc(F)cc3OC)cn2)C1 [Compound 76]	A (percent of modification of PIK3CA protein ≥75%)	
100 to 1000			C=CC(=O)N1CCc2ncc(-c3nc(N4CCN(C(C)C)CC4)c4ccsc4c3-c3c(F)cc(F)cc3OC(C)C)cc2C1 [Compound 373]	A (percent of modification of PIK3CA protein ≥75%)	
< 100			C=CC(=O)N1Cc2cc(-c3nc(-c4ccc5nncn5c4)c4ccsc4c3-c3c(F)cc(F)cc3OCC(C)O)nn2C(C)C1 (stereo not drawn) [Compound 643]	A (percent of modification of PIK3CA protein ≥75%)	
< 100			C=CC(=O)N1Cc2cc(-c3nc(-c4ccc5c(c4)C(=O)NC5)c4ccsc4c3-c3c(F)cc(F)cc3OCCOC)nn2CC1C (stereo not drawn) [Compound 768]	A (percent of modification of PIK3CA protein ≥75%)	
< 100			C=CC(=O)N1CCn2nc(-c3nc(-c4ccn5ncnc5c4)c4ccsc4c3-c3c(F)cc(F)cc3OCCOC)cc2C1C (stereo not drawn) [Compound 985]		A (percent of modification of PIK3CA protein ≥75%)
		100 to 1000	C=CC(=O)N1CC(n2cc(-c3nc(-c4ccc5c(c4)CCNC5)c4ccnn4c3-c3ccc(F)cc3OC)cn2)C1 [Compound 169, 1-[3-[4-[7-(4-fluoro-2-methoxy-phenyl)-4-(1,2,3,4-tetrahydroisoquinolin-6-yl)pyrazolo[1,5-a]pyrazin-6-yl]pyrazol-1-yl]azetidin-1-yl]prop-2-en-1-one]	B (50%<percent of modification <75%)	
< 100			C=CC(=O)N1CCn2nc(-c3nc(-c4ccc5cnncc5c4)c4ccsc4c3-c3c(F)cc(F)cc3OCCO)cc2[C@@H]1C [Compound 672]	A (percent of modification of PIK3CA protein ≥75%)	
100 to 1000			C=CC(=O)N1CC[C@H](n2cc(-c3nc(-c4ccc5c(c4)CCNC5)c4ccsc4c3-c3ccc(F)cc3OCCOC)ccc2=O)C1 [Compound 173]	A (percent of modification of PIK3CA protein ≥75%)	
< 100			C=CC(=O)N1CCc2ncc(-c3nc(-c4cnn(CC(F)F)c4)c4ccsc4c3-c3c(F)cc(F)cc3OCCOC)cc2C1 [Compound 385]	A (percent of modification of PIK3CA protein ≥75%)	
< 100			C=CC(=O)N1CCc2nc(-c3nc(-c4cnc5c(c4)CNC(=O)C5)c4ccsc4c3-c3c(F)cc(F)cc3OCCOC)sc2C1 [Compound 446]	A (percent of modification of PIK3CA protein ≥75%)	
100 to 1000			C=CC(=O)N1CCn2nc(-c3nc(-c4cnn(C)c4)c4ccsc4c3-c3c(F)cc(F)cc3OCCO)cc2[C@H]1C [Compound 641]	C (25%≤percent of modification <50%)	
< 100			C=CC(=O)N1CCc2ncc(-c3nc(-c4ccn(C(F)F)c(=O)c4)c4ccsc4c3-c3c(F)cc(F)cc3OC(C)C)cc2C1 [Compound 359]	A (percent of modification of PIK3CA protein ≥75%)	
